Measurements published in US11001587B2, “Substituted indazoles as phosphatidylinositol kinase inhibitors” (CUROVIR AB, priority 2017, dated 2021).

Assays:
[1] = in vivo; parameters: species or system Sprague Dawley rats; conditions: male, Sprague Dawley, rat, po, 50 mg/kg
Description: Overnight fasted animals were administered with the test compounds in recommended vehicle 0.4% (v/v) Tween 80+2% (v/v) Glycerol and 15% w/v HPBCD by oral route with a dose of 50 mg/kg body weight at dose volume of 10 mL/kg bw. Under mild isoflurane anesthesia, blood samples were collected into pre-labeled tubes containing anticoagulant (K2EDTA—2 mg/mL blood) during the next 24 hours post dose. Collected blood samples were centrifuged at 4000 rpm, 4° C. for 10 minutes and plasma was separated and stored at −80° C. until analysis.

[2] = tested on: coxsackie B3 virus; assay: In vitro CPE assay in mammalian cell culture, B3; type: cell-based; conditions: Enterovirus B, viral cytopathic effect in mammalian cell culture, read-out: B3 inhibition capacity (IC50)
[3] = tested on: Enterovirus 6; assay: In vitro CPE assay in mammalian cell culture, EV6; type: cell-based; conditions: viral cytopathic effect in mammalian cell culture, read-out: EV6 inhibition capacity (IC50)
[4] = tested on: Enterovirus 68; assay: In vitro CPE assay in mammalian cell culture, EV68; type: cell-based; conditions: Enterovirus D, viral cytopathic effect in mammalian cell culture, read-out: EV68 inhibition capacity (IC50)
[5] = biological target: PI3Kβ (Homo sapiens, UniProt P42338); assay: PI3 kinase inhibition HTRF assay; type: biochemical; conditions: * no inhibition at the highest tested concentration 1 μM
Description: (§1) Phosphatidyl inositol kinase inhibition assay Inhibition of PI4 kinases was studied using the ADP-Glo™ Kinase Assay which is a luminescent kinase assay that measures ADP formed from a kinase reaction, wherein ADP is converted into ATP, which is converted into light by Ultra-Glo™ Luciferase. The assay is performed in two steps; first, after the kinase reaction, an equal volume of ADP-Glo™ Reagent is added to terminate the kinase reaction and deplete the remaining ATP. In the second step, the Kinase Detection Reagent is added, which simultaneously converts ADP to ATP and allows the newly synthesized ATP to be measured using a coupled luciferase/luciferin reaction. The luminescent signal produced is proportional to the activity of the kinase. Inhibition of PI3 kinases was studied using the HTRF (homogeneous time-resolved fluorescence) assay, which is a universal method for identifying and characterizing the phosphotransferase activity induced by any ATP/ADP dependent target. The formation of ADP was detected by a specific monoclonal antibody labeled with Eu^3+ cryptate, and directly correlated with the amount of phosphorylated substrate.

[6] = biological target: PI3Kα (Homo sapiens, UniProt P42336); assay: PI3 kinase inhibition HTRF assay; type: biochemical; conditions: * no inhibition at the highest tested concentration 1 μM
Description: as §1

[7] = Metabolic stability in rat liver microsomes; type: in vitro ADME; conditions: 5 μM test item, 0.125 mg/mL microsomal protein
Description: (§2) Metabolic stability in human and rat liver microsomesMetabolic stability was studied using human (HLM) or rat (RLM) liver microsomes. The final composition of the assay included 5 μM of test item and reference item (Diclofenac or Imipramine) prepared from DMSO stock, so that the final concentration of DMSO was 0.1%, 0.125 mg/mL microsomal protein and cofactors (5.0 mM G-6-P, 0.06 U/mL G-6-PDH, 2.0 mM MgCl2, 1.0 mM NADP^+). Test and reference items were incubated with human or rat liver microsomes with or without cofactors. The reaction mixture (100 μL) was removed at specified time periods and the reaction was stopped by addition of stop solution. The samples were extracted in presence of internal standard and were analyzed using LC-MS/MS. The percent of the test/reference item remaining after a specified incubation period was calculated with respect to the peak area ratio at time 0 min.

[8] = tested on: coxsackie B4 virus; assay: In vitro CPE assay in mammalian cell culture, B4; type: cell-based; conditions: Enterovirus B, viral cytopathic effect in mammalian cell culture, read-out: B4 inhibition capacity (IC50)
[9] = tested on: coxsackie B5 virus; assay: In vitro CPE assay in mammalian cell culture, B5; type: cell-based; conditions: viral cytopathic effect in mammalian cell culture, read-out: B5 inhibition capacity (IC50)
[10] = tested on: Enterovirus 30; assay: In vitro CPE assay in mammalian cell culture, EV30; type: cell-based; conditions: viral cytopathic effect in mammalian cell culture, read-out: EV30 inhibition capacity (IC50)
[11] = Metabolic stability in human liver microsomes; type: in vitro ADME
Description: as §2

[12] = biological target: PI4KIIIβ (Homo sapiens, UniProt Q9UBF8); assay: Phosphatidyl inositol kinase inhibition assay (ADP-Glo Kinase Assay); type: biochemical
Description: as §1

[13] = biological target: PI4KIIIα (Homo sapiens, UniProt P42356); assay: as above; type: biochemical; conditions: * no inhibition at the highest tested concentration 1 μM
Description: as §1

[14] = tested on: Enterovirus 71; assay: In vitro CPE assay in mammalian cell culture, EV71; type: cell-based; conditions: Enterovirus A, viral cytopathic effect in mammalian cell culture, read-out: EV71 inhibition capacity (IC50)
[15] = in vivo; parameters: species or system Sprague Dawley rats; conditions: Sprague Dawley, rat, po
Description: Based on previous toxicity tests with analogs and pharmacokinetic data, repeated dose toxicity and toxicokinetic studies were conducted to generate information on the toxic characteristics of some representative compounds of the invention, viz. Example 8 and Example 12, respectively, when administered orally by gavage to Sprague Dawley rats for a period of 7 consecutive days. The study plan for the studies was by current ICH guidelines for 7 days toxicity studies and the No Observed Adverse Effect Level (NOAEL) of Example 8 and Example 12 was determined as 60 mg/kg body weight/day and 50 mg/kg bodyweight/day respectively when administered once daily orally to Sprague Dawley rats for 7 consecutive days under the tested dose levels and experimental conditions employed.

[16] = tested on: coxsackie B2 virus; assay: In vitro CPE assay in mammalian cell culture, B2; type: cell-based; conditions: viral cytopathic effect in mammalian cell culture, read-out: B2 inhibition capacity (IC50)
[17] = in vitro; type: in vitro ADME; conditions: plasma, pH 7.4
Description: Plasma protein binding study was performed by using a Rapid Equilibrium Dialysis (RED) device containing dialysis membrane with a molecular weight cut-off of 8,000 Daltons. Each dialysis insert contains two chambers. The red chamber was for the plasma while the white chamber was for the buffer. The human and rat plasma (pH adjusted to 7.40) samples of test items and reference items (Warfarin and Propranolol) were prepared at a required test concentration of 5 μM using 5 mM DMSO stocks (final DMSO concentration was 0.1%). 300 μL of plasma sample was added into the sample chamber. 500 μL of buffer was added into the buffer chamber. After sealing the RED device with an adhesive film, incubation was done at 37° C. with shaking at 300 rpm for 4 h. Following incubation, an aliquot of 50 μL was removed from each well (plasma and buffer side) and diluted with equal volume of opposite matrix to nullify the matrix effect. The specimens were subjected to sample extraction in presence of internal standard by liquid-liquid extraction/protein precipitation method. After extraction, the samples were transferred into labeled auto sampler vials and submitted to LC-MS/MS analysis.

[18] = tested on: coxsackie B1 virus; assay: In vitro CPE assay in mammalian cell culture, B1; type: cell-based; conditions: viral cytopathic effect in mammalian cell culture, read-out: B1 inhibition capacity (IC50)
[19] = tested on: polio virus Sabin 1; assay: organism not typed; type: cell-based; conditions: read-out: Polio 1 inhibition capacity (IC50)

Sequence of PI4KIIIα (P42356 whole entry): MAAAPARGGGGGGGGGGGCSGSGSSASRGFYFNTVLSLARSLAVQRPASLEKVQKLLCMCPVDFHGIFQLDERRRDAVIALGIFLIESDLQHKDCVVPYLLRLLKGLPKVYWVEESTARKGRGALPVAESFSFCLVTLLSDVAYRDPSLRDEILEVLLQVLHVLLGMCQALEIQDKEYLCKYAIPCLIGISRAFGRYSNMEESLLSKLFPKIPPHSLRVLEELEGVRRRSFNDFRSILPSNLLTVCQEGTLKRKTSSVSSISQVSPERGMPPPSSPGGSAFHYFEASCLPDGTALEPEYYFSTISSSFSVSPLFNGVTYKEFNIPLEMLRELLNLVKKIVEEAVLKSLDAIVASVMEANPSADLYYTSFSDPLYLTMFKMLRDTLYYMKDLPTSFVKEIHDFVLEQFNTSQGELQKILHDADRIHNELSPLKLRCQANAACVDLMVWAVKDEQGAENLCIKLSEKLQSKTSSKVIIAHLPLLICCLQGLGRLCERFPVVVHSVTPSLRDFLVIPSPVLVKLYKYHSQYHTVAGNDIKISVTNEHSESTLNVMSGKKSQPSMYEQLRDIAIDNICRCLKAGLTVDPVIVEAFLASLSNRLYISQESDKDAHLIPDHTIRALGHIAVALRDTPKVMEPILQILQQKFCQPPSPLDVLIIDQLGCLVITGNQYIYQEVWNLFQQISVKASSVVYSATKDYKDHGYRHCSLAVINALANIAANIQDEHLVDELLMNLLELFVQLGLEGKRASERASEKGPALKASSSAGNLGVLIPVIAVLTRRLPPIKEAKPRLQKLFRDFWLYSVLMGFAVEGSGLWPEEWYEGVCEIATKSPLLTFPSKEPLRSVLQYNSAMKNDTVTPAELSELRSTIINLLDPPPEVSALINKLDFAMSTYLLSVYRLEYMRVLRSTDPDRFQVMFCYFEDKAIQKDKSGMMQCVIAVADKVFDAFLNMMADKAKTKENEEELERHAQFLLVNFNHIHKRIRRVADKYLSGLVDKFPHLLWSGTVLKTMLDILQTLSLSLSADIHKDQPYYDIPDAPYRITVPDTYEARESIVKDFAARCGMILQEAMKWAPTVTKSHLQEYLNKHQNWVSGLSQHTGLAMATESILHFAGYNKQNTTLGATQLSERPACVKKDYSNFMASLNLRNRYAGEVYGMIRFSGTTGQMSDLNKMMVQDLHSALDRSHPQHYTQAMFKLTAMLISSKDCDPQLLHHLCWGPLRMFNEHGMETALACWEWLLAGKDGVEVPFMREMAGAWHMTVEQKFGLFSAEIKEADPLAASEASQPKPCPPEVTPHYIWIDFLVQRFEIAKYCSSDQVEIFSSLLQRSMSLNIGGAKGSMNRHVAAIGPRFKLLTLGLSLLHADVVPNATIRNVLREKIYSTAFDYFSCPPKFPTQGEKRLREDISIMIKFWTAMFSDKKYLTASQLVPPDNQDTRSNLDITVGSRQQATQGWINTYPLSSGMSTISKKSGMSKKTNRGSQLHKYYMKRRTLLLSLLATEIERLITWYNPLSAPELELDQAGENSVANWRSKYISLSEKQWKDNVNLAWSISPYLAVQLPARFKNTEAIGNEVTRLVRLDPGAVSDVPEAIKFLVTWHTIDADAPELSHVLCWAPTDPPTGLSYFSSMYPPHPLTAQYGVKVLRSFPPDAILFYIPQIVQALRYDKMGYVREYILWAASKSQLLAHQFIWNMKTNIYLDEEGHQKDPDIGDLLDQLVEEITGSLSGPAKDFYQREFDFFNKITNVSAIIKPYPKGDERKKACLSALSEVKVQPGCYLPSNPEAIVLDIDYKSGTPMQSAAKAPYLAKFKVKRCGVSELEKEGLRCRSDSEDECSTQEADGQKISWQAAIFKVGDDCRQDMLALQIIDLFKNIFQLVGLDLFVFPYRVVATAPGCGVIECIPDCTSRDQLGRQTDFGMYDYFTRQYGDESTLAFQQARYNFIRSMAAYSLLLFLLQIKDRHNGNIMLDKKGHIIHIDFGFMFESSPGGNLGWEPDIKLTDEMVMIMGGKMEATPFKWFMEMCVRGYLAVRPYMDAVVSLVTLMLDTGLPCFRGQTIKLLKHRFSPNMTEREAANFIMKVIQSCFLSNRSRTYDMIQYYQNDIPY
Sequence of PI3Kα (P42336 whole entry, species assumed): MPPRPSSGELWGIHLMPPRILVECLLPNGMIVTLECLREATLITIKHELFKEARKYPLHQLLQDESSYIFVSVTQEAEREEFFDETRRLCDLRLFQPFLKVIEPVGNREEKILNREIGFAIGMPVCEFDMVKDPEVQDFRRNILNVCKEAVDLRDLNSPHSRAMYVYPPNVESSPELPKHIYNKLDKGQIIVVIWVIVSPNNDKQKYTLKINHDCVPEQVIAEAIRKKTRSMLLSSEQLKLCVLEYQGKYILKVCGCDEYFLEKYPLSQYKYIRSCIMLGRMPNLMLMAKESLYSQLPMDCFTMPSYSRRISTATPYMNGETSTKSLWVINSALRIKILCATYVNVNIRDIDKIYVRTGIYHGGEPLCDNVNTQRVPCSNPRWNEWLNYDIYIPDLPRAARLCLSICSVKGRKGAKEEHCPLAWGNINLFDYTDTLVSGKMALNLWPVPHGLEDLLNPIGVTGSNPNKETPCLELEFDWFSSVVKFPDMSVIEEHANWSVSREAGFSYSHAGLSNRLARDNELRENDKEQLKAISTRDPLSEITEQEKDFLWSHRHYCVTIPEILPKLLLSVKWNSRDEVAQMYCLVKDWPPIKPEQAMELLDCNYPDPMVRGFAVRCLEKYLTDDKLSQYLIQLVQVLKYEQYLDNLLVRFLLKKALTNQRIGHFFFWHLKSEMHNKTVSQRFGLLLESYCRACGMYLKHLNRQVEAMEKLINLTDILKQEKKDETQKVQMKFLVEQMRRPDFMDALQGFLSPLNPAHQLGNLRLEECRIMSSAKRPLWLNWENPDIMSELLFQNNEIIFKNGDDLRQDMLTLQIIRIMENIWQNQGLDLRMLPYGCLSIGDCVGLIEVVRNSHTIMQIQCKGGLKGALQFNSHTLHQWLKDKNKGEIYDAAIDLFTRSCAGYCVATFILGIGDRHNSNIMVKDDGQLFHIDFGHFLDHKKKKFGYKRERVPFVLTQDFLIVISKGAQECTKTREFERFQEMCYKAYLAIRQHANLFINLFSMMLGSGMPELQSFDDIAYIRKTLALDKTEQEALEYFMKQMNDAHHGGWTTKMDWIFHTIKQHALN
Sequence of PI3Kα (P27986 whole entry partner, species assumed): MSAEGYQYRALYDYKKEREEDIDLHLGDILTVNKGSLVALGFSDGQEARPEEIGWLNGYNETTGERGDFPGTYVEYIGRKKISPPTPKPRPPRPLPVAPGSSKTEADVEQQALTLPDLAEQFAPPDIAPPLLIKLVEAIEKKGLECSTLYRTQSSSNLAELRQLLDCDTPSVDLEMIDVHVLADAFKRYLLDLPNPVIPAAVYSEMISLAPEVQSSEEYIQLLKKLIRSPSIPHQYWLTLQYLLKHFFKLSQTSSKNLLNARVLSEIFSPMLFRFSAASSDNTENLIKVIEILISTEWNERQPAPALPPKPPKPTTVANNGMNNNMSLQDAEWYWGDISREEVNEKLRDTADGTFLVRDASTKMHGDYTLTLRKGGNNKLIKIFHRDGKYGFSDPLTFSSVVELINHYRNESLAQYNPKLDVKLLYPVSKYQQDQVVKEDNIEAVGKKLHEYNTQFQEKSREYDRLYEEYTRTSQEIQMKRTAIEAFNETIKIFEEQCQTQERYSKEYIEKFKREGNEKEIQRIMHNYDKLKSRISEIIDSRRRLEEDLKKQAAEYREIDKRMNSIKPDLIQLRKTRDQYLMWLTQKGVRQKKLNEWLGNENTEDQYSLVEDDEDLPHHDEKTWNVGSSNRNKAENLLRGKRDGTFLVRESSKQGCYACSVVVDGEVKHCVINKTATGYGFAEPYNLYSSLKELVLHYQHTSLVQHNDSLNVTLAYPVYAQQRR
Sequence of PI3Kβ (P42338 whole entry, species assumed): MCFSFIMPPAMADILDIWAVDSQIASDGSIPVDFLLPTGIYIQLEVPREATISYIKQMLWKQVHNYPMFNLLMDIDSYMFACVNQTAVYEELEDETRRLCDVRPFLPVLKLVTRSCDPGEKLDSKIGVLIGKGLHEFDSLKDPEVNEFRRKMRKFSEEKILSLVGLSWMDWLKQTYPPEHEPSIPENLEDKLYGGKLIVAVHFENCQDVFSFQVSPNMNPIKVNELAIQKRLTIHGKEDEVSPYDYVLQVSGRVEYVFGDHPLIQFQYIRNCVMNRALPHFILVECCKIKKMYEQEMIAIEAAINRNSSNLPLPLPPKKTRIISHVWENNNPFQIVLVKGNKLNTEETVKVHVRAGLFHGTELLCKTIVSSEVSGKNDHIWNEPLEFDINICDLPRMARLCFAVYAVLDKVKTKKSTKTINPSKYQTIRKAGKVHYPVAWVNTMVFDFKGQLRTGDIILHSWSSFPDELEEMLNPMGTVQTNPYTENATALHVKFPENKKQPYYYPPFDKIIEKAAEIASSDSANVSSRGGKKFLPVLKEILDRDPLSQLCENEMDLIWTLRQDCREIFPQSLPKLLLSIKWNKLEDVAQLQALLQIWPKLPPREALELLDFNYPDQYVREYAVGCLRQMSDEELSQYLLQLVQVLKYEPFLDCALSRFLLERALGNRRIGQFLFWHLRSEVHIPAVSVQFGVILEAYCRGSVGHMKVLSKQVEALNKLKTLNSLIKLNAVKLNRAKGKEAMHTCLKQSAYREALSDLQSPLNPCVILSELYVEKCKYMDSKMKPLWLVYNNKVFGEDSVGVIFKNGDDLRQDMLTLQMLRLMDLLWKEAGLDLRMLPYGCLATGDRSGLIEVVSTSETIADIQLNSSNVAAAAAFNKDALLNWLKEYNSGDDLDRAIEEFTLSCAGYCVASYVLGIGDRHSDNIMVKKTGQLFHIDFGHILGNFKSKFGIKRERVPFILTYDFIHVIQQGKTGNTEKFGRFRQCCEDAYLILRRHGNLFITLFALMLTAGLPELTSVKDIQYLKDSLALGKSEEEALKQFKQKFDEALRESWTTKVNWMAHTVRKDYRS
Sequence of PI3Kβ (P27986 whole entry partner, species assumed): as the sequence (P27986 whole entry partner, species assumed) above

Cc1cc(NCc2ccc(S(C)(=O)=O)cc2)n2nc(C)c(-c3ccc4c(c3)c(C)nn4C)c2n1 [Example 12, 3-(1,3-dimethyl-1H-indazol-5-yl)-2,5-dimethyl-N-(4-(methyl-sulfonyl)benzyl)pyrazolo[1,5-a]pyrimidin-7-amine]
AUC(0-inf) [1]: 73300 ± 46900 ng·h/mL | AUC(0-t) [1]: 30000 ± 8200 ng·h/mL | AUCextrap [1]: 49.4 ± 24.5% | Cmax [1]: 1900 ± 100 ng/mL | MRT last [1]: 10.3 ± 1.2 h | Tmax [1]: 5.3 ± 2.3 h | half-life [1]: 27.6 ± 16.8 h | IC50 [2]: < 1 nM | IC50 [3]: < 10 nM | IC50 [4]: < 100 nM | IC50 [5]: > 1000 nM | IC50 [6]: > 1000 nM | Remaining after 1 h, RLM [7]: 71% | IC50 [8]: < 1 nM | IC50 [9]: < 1 nM | IC50 [10]: < 1 nM | Remaining after 1 h, HLM ([11]; human liver microsomes, 5 μM test item, 0.125 mg/mL microsomal protein): 84% | half-life at 5 μM ([11]; human, microsomes): > 2 h | IC50 [12]: 0.8 nM | IC50 [13]: 800 nM | IC50 [14]: < 10 nM | NOAEL at 7 days [15]: 50 mg/kg/day | IC50 [16]: < 10 nM | fraction unbound at 4 h, 5 μM ([17]; human): 0.01 | fraction unbound at 4 h, 5 μM ([17]; rat): 0.015 | IC50 [18]: < 10 nM | IC50 [19]: < 10 nM
